Results taken from patent US20220401407A1, “REGULATION OF THE SLEEP/WAKE CYCLE USING C[…]” (Demetrix, Inc., priority 2021, published 2022).
“Also recorded” adds a separate entry of the source.

Experiments:
Type in all cases: cell-based
[1] = target: T1, HCRTR1 (Homo sapiens, UniProt O43613); test: PathHunter β-Arrestin GPCR agonist assay, HCRTR1; set-up: concentration or dose not given beside the values; details: agonist mode; Orexin A as control
T1 sequence (O43613 1-425): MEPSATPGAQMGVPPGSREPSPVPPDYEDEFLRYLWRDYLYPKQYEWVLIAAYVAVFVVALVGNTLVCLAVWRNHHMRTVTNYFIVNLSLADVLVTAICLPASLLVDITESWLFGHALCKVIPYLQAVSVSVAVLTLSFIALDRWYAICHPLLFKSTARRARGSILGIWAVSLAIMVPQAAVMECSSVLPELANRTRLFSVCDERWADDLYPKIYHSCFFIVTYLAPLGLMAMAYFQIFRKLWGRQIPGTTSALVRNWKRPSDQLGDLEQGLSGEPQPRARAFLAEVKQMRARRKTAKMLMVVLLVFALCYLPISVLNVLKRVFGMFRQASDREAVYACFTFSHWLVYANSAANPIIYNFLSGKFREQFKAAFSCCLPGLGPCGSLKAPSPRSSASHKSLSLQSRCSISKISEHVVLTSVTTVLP
Description: (§1) To evaluate the role specific cannabinoid compounds may play on the sleep/wake cycle, a GPCR reactivity assay was performed to determine the reactivity of 19 cannabinoid compounds to the orexin receivers HCRTR1 and HCRTR2. The evaluated cannabinoid compounds were: CBN, THCV, CBDVA, CBG, CBL, CBC, CBDV, CBDA, CBD, CBGA, (+)-CBD, CBG-C4, CBD-C1, CBD-C2, CBGV, CBGA-C4, CBGVA, CBCA, and CBLA. Orexin A was used as the control for HCRTR1 and HCRTR2.
(§2) To perform the GPCR reactivity assay, a commercial GPCR assay, PathHunter® β-Arrestin from Eurofins DiscoverX Products (Fremont, Calif.), was used. […] At activation of the GPCR receptor and recruitment of β-arrestin, complementation of the peptide fragments occurs and restores β-galactosidase activity. The amount of β-galactosidase activity is then measurable using chemiluminescent reagents.
(§3) A total of four assays were run. Agonist assays were run for each of HCRTR1 and HCRTR2 and antagonist assays were run for HCRTR1 and HCRTR2. In each of the two agonist assays, PathHunter® cell lines were removed from a freezer stock and seeded at a volume of 20 μL into white walled, 384-well microplates and incubated at 37° C. Each cell was incubated with a sample to induce a response and then diluted to generate a 5× sample in assay buffer. 5 μL of the 5× sample was then added to cells and incubated at 37° C. for 90 or 180 minutes. The final assay concentration was 1%. The assay signal was generated through addition of 12.5 μL or 15 μL (50% V/V) of a detection reagent cocktail followed by a one hour incubation time at room temperature. Microplates were read following signal generation with a PerkinElmer Envision™ (PerkinElmer Inc., Waltham, Mass.) for chemiluminescent signal detection. Reactivity was analyzed using the CBIS data analysis suite (ChemInnovation, CA) where RLU refers to the raw measured values. The percent activity was then calculated using the formula: % Activity=100%*(mean RLU of test sample−mean RLU of control)/(mean max control ligand−mean RLU of vehicle control).
(§4) For agonist activity, the percent activity is depicted while for antagonist activity, the percent inhibition is depicted.

[2] = target: T2, HCRTR2 (Homo sapiens, UniProt O43614); test: PathHunter β-Arrestin GPCR agonist assay, HCRTR2; set-up: concentration or dose not given beside the values; details: agonist mode; Orexin A as control
T2 sequence (O43614 1-444): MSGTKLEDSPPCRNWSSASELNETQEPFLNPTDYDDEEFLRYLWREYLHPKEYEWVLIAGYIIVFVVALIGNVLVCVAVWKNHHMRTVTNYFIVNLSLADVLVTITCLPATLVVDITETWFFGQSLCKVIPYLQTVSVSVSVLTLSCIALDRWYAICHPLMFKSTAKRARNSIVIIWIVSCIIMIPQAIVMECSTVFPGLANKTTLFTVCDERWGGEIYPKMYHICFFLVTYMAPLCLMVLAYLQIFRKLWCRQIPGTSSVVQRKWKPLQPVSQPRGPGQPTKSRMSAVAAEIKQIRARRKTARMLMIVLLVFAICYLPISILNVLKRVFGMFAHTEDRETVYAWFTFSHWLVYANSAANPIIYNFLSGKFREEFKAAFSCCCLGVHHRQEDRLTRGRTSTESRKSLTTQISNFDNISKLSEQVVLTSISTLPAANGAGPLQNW
Description: as §1, §2, §3, §4

[3] = target: T1, HCRTR1; test: PathHunter β-Arrestin GPCR antagonist assay, HCRTR1; details: for HCRTR1 (Antagonist) percent inhibition: antagonist mode, agonist challenge at EC80
Description: as §1, §2
(§5) In each of the two antagonist assays, PathHunter® cell lines were removed from a freezer stock and seeded at a volume of 20 μL into white walled, 384-well microplates and incubated at 37° C. Each cell was pre-incubated with an antagonist followed by an agonist challenge at the EC80 concentration. Cells were then diluted to generate a 5× sample in assay buffer. 5 μL of the 5× sample was then added to cells and incubated at 37° C. for 30 minutes. Finally, 5 μL of 6×EC80 agonist in assay buffer were added to the cells and incubated at 37° C. for 90 minutes or 180 minutes. The assay signal was generated through addition of 12.5 μL or 15 μL (50% V/V) of a detection reagent cocktail followed by a one hour incubation time at room temperature. Microplates were read following signal generation with a PerkinElmer Envision™ (PerkinElmer Inc., Waltham, Mass.) for chemiluminescent signal detection. Reactivity was analyzed using the CBIS data analysis suite (ChemInnovation, CA) where RLU refers to the raw measured values. The percent inhibition was calculated using the formula: % Inhibition=100%*(1−mean RLU of test sample−mean RLU of control)/(mean RLU of EC80 control−mean RLU of vehicle control).
as §4

[4] = target: T2, HCRTR2; test: PathHunter β-Arrestin GPCR antagonist assay, HCRTR2; details: for HCRTR2 (Antagonist) percent inhibition: antagonist mode, agonist challenge at EC80
Description: as §1, §2, §5, §4

[5] = target: dopamine receptor DRD5 (Homo sapiens, UniProt P21918); test: PathHunter β-Arrestin GPCR agonist assay, DRD5; set-up: DRD5 (Agonist) percent activity: concentration or dose not given beside the values; details: for DRD5 (Agonist) percent activity: agonist mode, dopamine as control
dopamine receptor DRD5, sequence (P21918 whole entry): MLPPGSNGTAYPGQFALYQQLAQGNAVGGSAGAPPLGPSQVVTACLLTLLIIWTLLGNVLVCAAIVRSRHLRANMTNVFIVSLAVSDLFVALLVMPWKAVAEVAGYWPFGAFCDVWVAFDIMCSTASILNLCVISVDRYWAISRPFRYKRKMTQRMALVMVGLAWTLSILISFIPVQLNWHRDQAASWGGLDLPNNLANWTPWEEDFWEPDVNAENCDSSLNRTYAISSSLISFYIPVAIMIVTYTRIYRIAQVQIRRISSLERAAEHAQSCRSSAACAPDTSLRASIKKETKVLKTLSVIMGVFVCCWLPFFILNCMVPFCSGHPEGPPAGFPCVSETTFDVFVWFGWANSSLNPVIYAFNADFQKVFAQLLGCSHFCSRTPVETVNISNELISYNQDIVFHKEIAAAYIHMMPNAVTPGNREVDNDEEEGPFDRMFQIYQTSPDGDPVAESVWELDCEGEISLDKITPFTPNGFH
Description: as §2, §3
Table 2 depicts the results of evaluating the cannabinoid compounds to act as an agonist for the dopamine receptor DRD5. The same experimental procedure as used for HCRTR1 and HCRTR2 agonist testing (Table 1) was followed with the substitution of dopamine as the control for the DRD5 receptor.

C=C(C)[C@@H]1CCC(C)=C[C@H]1c1c(O)cc(CCC)cc1O [CBDV, cannabidivarin]
HCRTR1 (Agonist) percent activity [1]: 0% | HCRTR2 (Agonist) percent activity [2]: 0% | antagonist effect on HCRTR1 (in words) [3]: demonstrate activity against only HCRTR1; also recorded: acted as antagonists | HCRTR1 (Antagonist) percent inhibition [3]: 61% | antagonist effect on HCRTR2 (in words) [4]: demonstrate activity against only HCRTR1; also recorded: did not act as antagonists | HCRTR2 (Antagonist) percent inhibition [4]: 18% | DRD5 (Agonist) percent activity [5]: 7%

CCCc1cc(O)c2c(c1)OC(C)(C)[C@@H]1CCC(C)=C[C@@H]21 [THCV, tetrahydrocannabivarin]
HCRTR1 (Agonist) percent activity [1]: 2% | HCRTR2 (Agonist) percent activity [2]: 6% | antagonist effect on HCRTR1 (in words) [3]: antagonist effect; also recorded: acted as an antagonist | HCRTR1 (Antagonist) percent inhibition [3]: 89% | antagonist effect on HCRTR2 (in words) [4]: antagonist effect; also recorded: acted as an antagonist | HCRTR2 (Antagonist) percent inhibition [4]: 89% | DRD5 agonist effect (in words) [5]: DRD5 agonists; also recorded: stronger agonist effects | DRD5 (Agonist) percent activity [5]: 52%

(+)-cannabidiol [(+)-CBD]
HCRTR1 (Agonist) percent activity [1]: 3% | HCRTR2 (Agonist) percent activity [2]: 8% | antagonist effect on HCRTR1 (in words) [3]: antagonist effect; also recorded: acted as an antagonist | HCRTR1 (Antagonist) percent inhibition [3]: 97% | antagonist effect on HCRTR2 (in words) [4]: antagonist effect; also recorded: acted as an antagonist | HCRTR2 (Antagonist) percent inhibition [4]: 80% | DRD5 (Agonist) percent activity [5]: 9%

CCCCCc1cc(O)c(C/C=C(\C)CCC=C(C)C)c(O)c1C(=O)O [CBGA, cannabigerolic acid]
HCRTR1 (Agonist) percent activity [1]: 1% | HCRTR2 (Agonist) percent activity [2]: 1% | antagonist effect on HCRTR1 (in words) [3]: do not demonstrate meaningful activity | HCRTR1 (Antagonist) percent inhibition [3]: 8% | antagonist effect on HCRTR2 (in words) [4]: do not demonstrate meaningful activity | HCRTR2 (Antagonist) percent inhibition [4]: 14% | DRD5 (Agonist) percent activity [5]: 0%

CCCCCc1cc2c(c(O)c1C(=O)O)C1C3C(CCC3(C)O2)C1(C)C (stereo not drawn) [CBLA, cannabicyclolic acid]
HCRTR1 (Agonist) percent activity [1]: 2% | HCRTR2 (Agonist) percent activity [2]: 0% | antagonist effect on HCRTR1 (in words) [3]: do not demonstrate meaningful activity | HCRTR1 (Antagonist) percent inhibition [3]: 7% | antagonist effect on HCRTR2 (in words) [4]: do not demonstrate meaningful activity | HCRTR2 (Antagonist) percent inhibition [4]: 15% | DRD5 (Agonist) percent activity [5]: 0%

C=C(C)[C@@H]1CCC(C)=C[C@H]1c1c(O)cc(CCCCC)c(C(=O)O)c1O [CBDA, cannabidiolic acid]
HCRTR1 (Agonist) percent activity [1]: 1% | HCRTR2 (Agonist) percent activity [2]: 0% | antagonist effect on HCRTR1 (in words) [3]: do not demonstrate meaningful activity | HCRTR1 (Antagonist) percent inhibition [3]: 2% | antagonist effect on HCRTR2 (in words) [4]: do not demonstrate meaningful activity | HCRTR2 (Antagonist) percent inhibition [4]: 10% | DRD5 (Agonist) percent activity [5]: 5%

CCCCCc1cc(O)c2c(c1)OC(C)(CCC=C(C)C)C=C2 (stereo not drawn) [CBC, cannabichromene]
HCRTR1 (Agonist) percent activity [1]: 0% | HCRTR2 (Agonist) percent activity [2]: 3% | antagonist effect on HCRTR1 (in words) [3]: antagonist effect; also recorded: acted as an antagonist | HCRTR1 (Antagonist) percent inhibition [3]: 98% | antagonist effect on HCRTR2 (in words) [4]: antagonist effect; also recorded: acted as an antagonist | HCRTR2 (Antagonist) percent inhibition [4]: 96% | DRD5 (Agonist) percent activity [5]: 22%

CCCc1cc(O)c(C/C=C(\C)CCC=C(C)C)c(O)c1 [CBGV, cannabigerivarin]
HCRTR1 (Agonist) percent activity [1]: 4% | HCRTR2 (Agonist) percent activity [2]: 2% | antagonist effect on HCRTR1 (in words) [3]: demonstrate activity against only HCRTR1; also recorded: acted as antagonists | HCRTR1 (Antagonist) percent inhibition [3]: 44% | antagonist effect on HCRTR2 (in words) [4]: demonstrate activity against only HCRTR1; also recorded: did not act as antagonists | HCRTR2 (Antagonist) percent inhibition [4]: 12% | DRD5 (Agonist) percent activity [5]: 6%
